Results on 2 substances are retold here after patent publication US20100305036A1, “COMBINATION OF PROTEIN TYROSINE PHOSPHATASE INHIBITORS AND HUMAN GROWTH HORMONE FOR THE TREATMENT OF MUSCLE ATROPHY AND RELATED DISORDERS” (priority 2007, published 2010).

The subject of one test is AKT phosphorylation. The note with it: hGH treatment of C2C12; cited from earlier work.
The subject of the next test is C2C12 myotubes. Description: C2C12 myotube diameter. Type of test: cell-based. An excerpt: C2C12 cells can be obtained from the American Type Tissue Culture Bank and propagated in standard growth media containing 10% horse serum. When cells reached 70% confluency the media is changed to differentiation media containing 2% horse serum. Three days after start of differentiation multinucleated myotubes should be present, with visible striations, indicating differentiation. hGH can be used as a positive control for activating the IGF-1 receptor, or alternatively, combined with a PTP1B inhibitor to assess synergistic or additive effects. Consequently, PTP1B inhibitors and/or hGH can be added to the media for various times.
Myotube Diameter Myotube diameter can be assessed 24 hours after addition of PTP1B inhibitor and/or hGH to myotube media. Cells are washed in saline and fixed in gluteraldehyde. Images can be obtained on an inverted microscope using the green fluorescent channel to visualize the auto-fluorescence induced by the gluteraldehyde fixation. Images are printed out at standard magnification and the sixty largest myotubes measured at their largest diameter (as previously published). The fifty largest myotubes in each group can be statistically compared using the Kruskal-Wallis One Way Analysis on Ranks. Differences are considered significant if p<0.05 and designated by an asterisk in FIG. 1. […]

Turning to “hGH: Human Growth Hormone, can be purchased from Bachem H-3148”, the AKT phosphorylation result in the test with AKT phosphorylation is “cause AKT phosphorylation”. Besides, the C2C12 myotube diameter result in the test on C2C12 myotubes (hGH alone) is “significant increase”.
For the substance “IGF1: human insulin-like growth factor1 or IGF1, however formulated or stabilized”, the myotube hypertrophy entry in the test with C2C12 myotubes (IGF1 alone added to C2C12 myotubes media at 10 ng/ml) was “significantly hypertrophied”.
